How the values were obtained:
ABUTH [1] = assay: Post-emergence herbicidal action against ABUTH; type: in vivo, Abutilon theophrasti; conditions: visual assessment about 3 weeks after treatment vs untreated controls
Outline: (§1)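 Foliar application at one-leaf stage of formulated test compounds, aqueous spray at 600–800 l/ha with 0.2% wetting agent. Greenhouse, optimal conditions, ~3 weeks; damage scored visually in % relative to untreated plants.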

PHBPU = assay: Post-emergence herbicidal action against PHBPU; type: in vivo, Pharbitis purpurea
Outline: as §1

POLCO = assay: Pre-emergence herbicidal action against POLCO; type: in vivo, Polygonum convolvulus
Outline: (§2)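 Greenhouse pots of sandy loam held seeds covered with soil, onto which the compound was applied before emergence. An aqueous suspension or emulsion of WP or EC was used at 600 to 800 l/ha with 0.2% wetting agent. Percent damage was judged visually at 3 weeks.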

DIGSA [2] = assay: Pre-emergence herbicidal action against DIGSA; type: in vivo, Digitaria sanguinalis
Outline: as §2

AVEFA [3] = assay: Post-emergence herbicidal action against AVEFA; type: in vivo, Avena fatua; conditions: 20 g/ha, visual assessment about 3 weeks after treatment, 100% = plants have died, 0% = like control plants
Outline: as §1

AVEFA [4] = assay: Pre-emergence herbicidal action against AVEFA; type: in vivo, Avena fatua; conditions: 80 g/ha, pre-emergence
Outline: as §2

SETVI [5] = assay: Pre-emergence herbicidal action against SETVI; type: in vivo, Setaria viridis; conditions: dosage 80 g/ha
Outline: as §2

MATIN [6] = assay: Post-emergence herbicidal action against MATIN; type: in vivo, Matricaria inodora
Outline: as §1

VERPE [7] = assay: Post-emergence herbicidal action against VERPE; type: in vivo, Veronica persica; conditions: 20 g/ha
Outline: as §1

VIOTR [8] = assay: Post-emergence herbicidal action against VIOTR; type: in vivo, Viola tricolor; conditions: 20 g/ha
Outline: as §1

AMARE [9] = assay: Post-emergence herbicidal action against AMARE; type: in vivo, Amaranthus retroflexus; conditions: 20 g/ha, visual assessment about 3 weeks after treatment, 100% = plants have died, 0% = like control plants
Outline: as §1

VIOTR [10] = assay: Pre-emergence herbicidal action against VIOTR; type: in vivo, Viola tricolor
Outline: as §2

MATIN [11] = assay: Pre-emergence herbicidal action against MATIN; type: in vivo, Matricaria inodora
Outline: as §2

ALOMY = assay: Pre-emergence herbicidal action against ALOMY; type: in vivo, Alopecurus myosuroides; conditions: 80 g/ha, pre-emergence, scored visually after 3 weeks vs untreated controls (100% = plants have died, 0% = like control plants)
Outline: as §2

ABUTH [12] = assay: Pre-emergence herbicidal action against ABUTH; type: in vivo, Abutilon theophrasti; conditions: for Pre-emergence action against ABUTH (herbicidal activity): 80 g/ha, scored visually after 3 weeks vs untreated controls (100% = plants have died, 0% = like control plants); for Pre-emergence action against ABUTH (herbicidal activity in percent): dosage 20 g/ha, scored visually after 3 weeks vs untreated controls, 100% = plants have died, 0% = like control plants
Outline: as §2

STEME [13] = assay: Pre-emergence herbicidal action against STEME; type: in vivo, Stellaria media
Outline: as §2

STEME [14] = assay: Post-emergence herbicidal action against STEME; type: in vivo, Stellaria media
Outline: as §1

AMARE [15] = assay: Pre-emergence herbicidal action against AMARE; type: in vivo, Amaranthus retroflexus
Outline: as §2

VERPE [16] = assay: Pre-emergence herbicidal action against VERPE; type: in vivo, Veronica persica; conditions: dosage 80 g/ha
Outline: as §2

ECHCG [17] = assay: Post-emergence herbicidal action against ECHCG; type: in vivo, Echinochloa crus-galli
Outline: as §1

ECHCG [18] = assay: Pre-emergence herbicidal action against ECHCG; type: in vivo, Echinochloa crus-galli; conditions: 80 g/ha
Outline: as §2

DIGSA [19] = assay: Post-emergence herbicidal action against DIGSA; type: in vivo, Digitaria sanguinalis
Outline: as §1

SETVI [20] = assay: Post-emergence herbicidal action against SETVI; type: in vivo, Setaria viridis
Outline: as §1

[21] = 20 g/ha, scored visually after 3 weeks vs untreated controls, 100% = plants have died, 0% = like control plants
[22] = 80 g/ha, scored visually after 3 weeks vs untreated controls (100% = plants have died, 0% = like control plants)

| SMILES | Post-emergence action against ABUTH in % (ABUTH [1]; dosage 5 g/ha) | Post-emergence action against ABUTH in % (ABUTH [1]; dosage 20 g/ha) | Post-emergence action against PHBPU in % (PHBPU; dosage 20 g/ha) | Pre-emergence action against POLCO in % (POLCO; dosage 20 g/ha) | Pre-emergence action against POLCO in % (POLCO; dosage 80 g/ha) | Pre-emergence action against DIGSA in % (DIGSA [2]; dosage 20 g/ha) | Pre-emergence action against DIGSA in % (DIGSA [2]; dosage 80 g/ha) | Post-emergence action at 20 g/ha against AVEFA in % (AVEFA [3]) | Pre-emergence action against AVEFA in % (AVEFA [4]) | Pre-emergence action against SETVI in % (SETVI [5]) | Post-emergence action at 20 g/ha against AMARE in % (AMARE [9]) | Pre-emergence action against VIOTR in % (VIOTR [10]; dosage 80 g/ha) | Pre-emergence action against MATIN in % (MATIN [11]; dosage 20 g/ha) | Pre-emergence action against MATIN in % (MATIN [11]; dosage 80 g/ha) | Pre-emergence action against ABUTH (herbicidal activity) (ABUTH [12]) | Pre-emergence action against ABUTH (herbicidal activity in percent) (ABUTH [12]) | Pre-emergence action against STEME in % (STEME [13]; dosage 20 g/ha) | Pre-emergence action against STEME in % (STEME [13]; dosage 80 g/ha) | Post-emergence action against STEME in % (STEME [14]; 20 g/ha) | Pre-emergence action against AMARE in % (AMARE [15]; [21]) | further results |
| --- | --- | --- | --- | --- | --- | --- | --- | --- | --- | --- | --- | --- | --- | --- | --- | --- | --- | --- | --- | --- | --- |
| CCn1nnnc1NC(=O)c1ccc(C(F)F)c(C(=O)NC)c1C [Example 2-44] | 80% | 90% | 80% | 80% | 90% | 100% | 100% | 80% | 90% | 100% | 100% | 100% | 90% | 100% | 100% | 100% | 90% | 100% | 80% | 100% | Post-emergence action against PHBPU in % (PHBPU; dosage 5 g/ha): 80%; Post-emergence action against MATIN in % (MATIN [6]; dosage 5 g/ha): 80%; Post-emergence action against MATIN in % (MATIN [6]; dosage 20 g/ha): 80%; Post-emergence action against VERPE in % (VERPE [7]): 80%; Post-emergence action against VIOTR in % (VIOTR [8]): 80%; Pre-emergence action against VIOTR in % (VIOTR [10]; dosage 20 g/ha): 100%; Pre-emergence action against ALOMY (herbicidal activity) (ALOMY): 80%; Pre-emergence action against AMARE in % (AMARE [15]; [22]): 100%; Pre-emergence action against VERPE in % (VERPE [16]): 90%; Post-emergence action against ECHCG in % (ECHCG [17]; dosage 20 g/ha): 80% |
| CNC(=O)c1c(C(F)F)ccc(C(=O)Nc2nnco2)c1SC [Example 5-74] | 90% | 90% | 100% | 80% | 80% | 90% | 100% | 80% | 80% | 90% | 100% | 100% | 80% | 90% | 100% | 80% | 90% | 100% | 90% | 100% | Pre-emergence action against ECHCG in % (ECHCG [18]): 90%; Post-emergence action against DIGSA in % (DIGSA [19]; 5 g/ha): 90%; Post-emergence action against DIGSA (DIGSA [19]; 20 g/ha): 90%; Post-emergence action against SETVI in % (SETVI [20]; dosage 5 g/ha): 80%; Post-emergence action against SETVI in % (SETVI [20]; dosage 20 g/ha): 90%; Post-emergence action against STEME in % (STEME [14]; dosage 5 g/ha): 80%; Pre-emergence action against AMARE in % (AMARE [15]; [22]): 100%; Post-emergence action against ECHCG in % (ECHCG [17]; dosage 5 g/ha): 80%; Post-emergence action against ECHCG in % (ECHCG [17]; dosage 20 g/ha): 80% |

Source: US12655116B2, “Substituted isophthalic acid diamides” (Bayer Aktiengesellschaft, priority 2020, dated 2026)
